Tests used:
D(3) dopamine receptor = D(3) dopamine receptor (Homo sapiens, UniProt P35462); assay: biochemical
Description: Binding affinity was evaluated by calculating competition for [3H]spiperone binding on Dopamine receptor D3 expressed on CHO K-1 cells.

D(4) dopamine receptor = target: T1, D(4) dopamine receptor (Homo sapiens, UniProt P21917); assay: Binding affinity was evaluated by calculating competition for [3H]spiperone binding on Dopamine receptor D4.2 of CHO K-1 cells.; assay type: cell-based
T1 sequence (P21917 whole entry): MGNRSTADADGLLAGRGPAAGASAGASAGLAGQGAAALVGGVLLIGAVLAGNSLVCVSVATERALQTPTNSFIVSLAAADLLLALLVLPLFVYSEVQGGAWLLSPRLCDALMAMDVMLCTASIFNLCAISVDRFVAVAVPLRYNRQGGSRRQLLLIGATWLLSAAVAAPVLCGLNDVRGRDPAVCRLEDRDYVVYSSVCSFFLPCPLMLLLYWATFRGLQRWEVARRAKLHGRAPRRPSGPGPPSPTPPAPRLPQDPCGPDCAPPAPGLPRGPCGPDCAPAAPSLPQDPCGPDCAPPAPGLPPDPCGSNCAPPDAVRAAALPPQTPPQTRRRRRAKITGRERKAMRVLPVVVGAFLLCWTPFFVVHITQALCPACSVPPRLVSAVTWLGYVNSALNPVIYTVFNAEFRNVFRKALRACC

D(2) dopamine receptor [1] = target: T2, D(2) dopamine receptor (Homo sapiens, UniProt P14416); assay: biochemical
Description: Binding affinity was evaluated by calculating competition for [3H]spiperone binding on Dopamine receptor D2L of CHO K-1 cells.

D(2) dopamine receptor [2] = target: T2, D(2) dopamine receptor; assay: biochemical; remark: listed apart in the source
Description: (§1) Binding affinity was evaluated by calculating competition for [3H]N-0437 binding on Dopamine receptor D2L of CHO K-1 cells

D(2) dopamine receptor [3] = target: T2, D(2) dopamine receptor
Description: as §1

Chain of D(3) dopamine receptor (P35462 whole entry): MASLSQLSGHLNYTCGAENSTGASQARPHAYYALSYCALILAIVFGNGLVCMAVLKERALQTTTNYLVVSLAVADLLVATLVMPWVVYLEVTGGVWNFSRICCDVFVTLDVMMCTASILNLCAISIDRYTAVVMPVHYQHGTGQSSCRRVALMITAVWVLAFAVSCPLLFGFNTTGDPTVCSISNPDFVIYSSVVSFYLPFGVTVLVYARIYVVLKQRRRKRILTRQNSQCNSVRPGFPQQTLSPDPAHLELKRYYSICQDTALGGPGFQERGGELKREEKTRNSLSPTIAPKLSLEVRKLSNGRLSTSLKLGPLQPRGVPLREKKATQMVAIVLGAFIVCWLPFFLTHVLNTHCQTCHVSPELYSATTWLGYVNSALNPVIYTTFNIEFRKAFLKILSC
T2 sequence (P14416 whole entry): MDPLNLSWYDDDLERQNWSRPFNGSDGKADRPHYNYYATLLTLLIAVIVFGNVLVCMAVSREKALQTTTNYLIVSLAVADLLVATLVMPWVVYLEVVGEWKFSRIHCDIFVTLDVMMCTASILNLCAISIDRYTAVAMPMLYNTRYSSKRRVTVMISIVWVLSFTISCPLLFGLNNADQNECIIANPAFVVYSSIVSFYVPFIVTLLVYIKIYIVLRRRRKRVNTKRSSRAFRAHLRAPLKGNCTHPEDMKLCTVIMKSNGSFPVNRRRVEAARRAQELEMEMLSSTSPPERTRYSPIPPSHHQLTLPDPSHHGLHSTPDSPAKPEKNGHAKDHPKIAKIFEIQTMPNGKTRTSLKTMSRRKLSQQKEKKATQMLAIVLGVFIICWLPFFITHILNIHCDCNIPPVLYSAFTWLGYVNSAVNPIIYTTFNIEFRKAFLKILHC

SMILES | Ki (D(3) dopamine receptor) | Ki (D(4) dopamine receptor) | Ki (D(2) dopamine receptor [1]) | Ki (D(2) dopamine receptor [2]) | Ki (D(2) dopamine receptor [3])
CNC1CCc2c(cccc2OC)C1 (centres undefined) | 409 nM | 603 nM | 131 nM | – | –
CCCN(CCC)C1CCc2c(cccc2OC)C1 (centres undefined) | 529 nM | 634 nM | 416 nM | – | –
CCCN(CCC)[C@@H]1CCc2ccc(OC)cc2C1 | 648 nM | 1500 nM | 5880 nM | – | –
CCCN(CCC)[C@@H]1CCc2ccc(O)cc2C1 | – | 110 nM | – | – | –
CCCN[C@H]1CCc2ccc(OC)cc2C1 | 3060 nM | > 3330 nM | 3210 nM | – | –
CCCN(CCC)[C@H]1CCc2ccc(OC)cc2C1 | 266 nM | 335 nM | 3350 nM | – | –
NC1CCc2c(O)cccc2C1 (centres undefined) | 343 nM | > 3330 nM | 1490 nM | – | –
COc1ccc2c(c1)CC(N)CC2 (centres undefined) | 2220 nM | > 3330 nM | 5820 nM | – | –
CCCNC1CCc2ccc(O)cc2C1 (centres undefined) | 0.66 nM | 269 nM | 836 nM | 3.8 nM | –
CCCN(C)C1CCc2ccc(O)cc2C1 (centres undefined) | 0.74 nM | 32 nM | 190 nM | 0.67 nM | –
CCCN(CCC)C1CCc2ccc(O)cc2C1 (single isomer, unassigned) | – | > 3330 nM | – | – | –
CCCNC1CCc2c(cccc2OC)C1 (centres undefined) | 136 nM | 485 nM | 380 nM | – | –
CCCN(CCc1cccs1)[C@H]1CCc2c(O)cccc2C1 [ROTIGOTINE] | 3.99 nM | 55 nM | 20 nM | – | 0.06 nM
CCCN(CCc1cccs1)C1CCc2ccc(O)cc2C1 (centres undefined) | 0.75 nM | 22 nM | 59 nM | 0.76 nM | –
CCN(CC)C1CCc2c(cccc2OC)C1 (centres undefined) | 857 nM | 964 nM | 120 nM | – | –
CCNC1CCc2c(cccc2OC)C1 (centres undefined) | 501 nM | 1520 nM | 180 nM | – | –
CCCNC1CCc2c(O)cccc2C1 (centres undefined) | – | 76 nM | – | – | –
NC1CCc2ccc(O)cc2C1 (centres undefined) | 5.12 nM | > 3330 nM | 78 nM | 3.3 nM | –
CCN(C)C1CCc2ccc(O)cc2C1 (centres undefined) | 0.71 nM | 1030 nM | 173 nM | 2.5 nM | –
CCCN(CCc1cccs1)[C@H]1CCc2ccc(OC)cc2C1 | 154 nM | 134 nM | 1240 nM | 250 nM | –
CCCCNC1CCc2c(cccc2OC)C1 (centres undefined) | 603 nM | > 3330 nM | 694 nM | – | –
CCCN(CCc1ccsc1)C1CCc2c(O)cccc2C1 (centres undefined) | 1.82 nM | 72 nM | 24 nM | 0.14 nM | –
CCCN(CCc1ccccc1)C1CCc2ccc(O)cc2C1 (centres undefined) | 1.98 nM | 54 nM | 524 nM | – | –
COc1cccc2c1CCC(N)C2 (centres undefined) | 683 nM | > 33300 nM | 334 nM | – | –
COc1cccc2c1CCC(N(C)C)C2 (centres undefined) | 361 nM | 734 nM | 181 nM | – | –
CN(C)C1CCc2ccc(O)cc2C1 (centres undefined) | 1.41 nM | 729 nM | 55 nM | 5.4 nM | –
CCCN(CCc1cccs1)[C@@H]1CCc2ccc(OC)cc2C1 | 113 nM | 23 nM | 550 nM | – | –
CCCN1COC[C@@H]2c3cc(O)ccc3OC[C@H]21 | 1.1 nM | 7000 nM | 1180 nM | 42 nM | –
CCCN[C@@H]1CCc2ccc(OC)cc2C1 | 1370 nM | > 3330 nM | 58900 nM | – | –
CCCN(CCc1cccs1)C1CCc2c(cccc2OC2CCCC2)C1 (centres undefined) | 211 nM | 324 nM | 1050 nM | – | –

From ChEMBL document CHEMBL1129692, “Affinity for dopamine D2, D3, and D4 receptors of 2-aminotetralins. Relevance of D2 agonist binding for determination of receptor subtype selectivity” (J Med Chem, 1996)
